According to patent publication US20260049072A1, “HETEROCYCLIC COMPOUND FOR INDUCING DEGRADATION OF MUTANT KRAS PROTEIN” (Astellas Pharma Inc., priority 2022, published 2026):

How the values were obtained:
[1] = system: phosphorylation of ERK (Thr202/Tyr204); test: ERK phosphorylation inhibitory activity, cell ELISA, PA-TU-8902; format: cell-based; conditions: Homo sapiens, PaTu 8902; PA-TU-8902 cells, 24 hours, 100% = 300 nM trametinib; read-out: IC50 (ERK phosphorylation inhibition)
Experimental: Test Example 2: Evaluation of ERK Phosphorylation Inhibitory Activity on Human KRAS G12V Mutant-Positive Pancreatic Cancer Line PA-TU-8902
The ERK phosphorylation inhibitory activities of subject compounds were evaluated by measuring phosphorylation of the 202th threonine (Thr202) and the 204th tyrosine (Tyr204) of ERK located downstream of the KRAS signal by cell ELISA.
PA-TU-8902 cells were seeded at 36 µL/well on a 384-well plate (from Greiner bio-one) to give 5.0×10^3 cells per well. The cell culture conditions were the same conditions as in Test Example 1-1.
The next day, the subject compounds (9 points having final concentrations in the range of 3 μM to 0.3 nM), trametinib (MEK inhibitor) of a final concentration of 300 nM as a positive control and DMSO, which was the solvent for the subject compounds, as a negative control were diluted 100-fold with a fresh medium and were each added at 4 μL per well, followed by culturing for 24 hours. After culturing, a 30% glyoxal solution (40% glyoxal [from Nacalai Tesque] was diluted with PBS) was quickly added at 30 μL per well, and the plate was allowed to stand for an hour and 30 minutes at room temperature to thus immobilize the cells. Then, the plate was centrifuged (110×g, seven seconds, hereinafter centrifugation was performed under the same conditions unless otherwise specified) to remove the supernatant, and 0.1% Triton X-100-containing PBS was added at 20 μL per well. After allowing the plate to stand for 10 minutes at room temperature, the supernatant was removed by centrifugation, and the same operation was further repeated. Next, 0.5% SDS-containing PBS was added at 20 μL per well. The plate was allowed to stand at room temperature for 30 minutes and was then centrifuged to remove the supernatant. Subsequently, a blocking solution (Intercept Blocking Buffer) was added at 20 μL per well, and the plate was allowed to stand for an hour at room temperature. The supernatant was removed by centrifugation, and an ERK (Thr202/Tyr204) phosphorylation antibody (Phospho-p44/42 MAPK (Erk 1/2) (Thr202/Tyr204) (D13.14.4E) XP Rabbit mAb; from Cell Signaling Technology) diluted 2,500-fold with the blocking solution was added at 15 μL per well as a primary antibody. The plate was allowed to stand at 4° C. overnight.
The next day, the plate was centrifuged to remove the supernatant, and 0.05% Tween-20-containing PBS (from Thermo Scientific; 20×PBS Tween-20 was diluted 20-fold with ion exchange water and used) was added at 50 μL per well. The supernatant was removed by centrifugation to thus wash each well. The washing was performed three times in total. After washing, an anti-rabbit IgG antibody diluted 1,000-fold with the blocking solution was added at 15 μL per well as a secondary antibody, and the plate was allowed to stand for an hour at room temperature. The plate was centrifuged to remove the supernatant, and each well was washed three times with 0.05% Tween-20-containing PBS in the same manner as after the primary antibody reaction. Centrifugation after the third washing was performed at 171×g for 17 seconds. After removing the supernatant, the plate was dried as it was with air at room temperature for three hours or more, and the 800-nm fluorescent signals were measured with Aerius.
With the signaling value at the time of addition of DMSO taken as 0% inhibition and with the signaling value at the time of addition of 300 nM trametinib taken as 100% inhibition, the 50% inhibition values (IC50) were calculated by Sigmoid-Emax model nonlinear regression analysis.

PA-TU-8902 xenograft = test: Anti-tumor activity in PA-TU-8902 xenograft mouse; format: in vivo; conditions: 30 mg/kg, tail vein, twice a week for two weeks, male nude mice
Experimental: (§1) Test Example 4: Evaluation of Anti-Tumor Activity in Human KRAS G12V Mutant-Positive Pancreatic Cancer Line PA-TU-8902 or Human KRAS G12D Mutant-Positive Pancreatic Cancer Line PK-59 Xenograft Mouse
(§2) PA-TU-8902 cells or PK-59 cells (RIKEN BRC, RCB1901) were cultured using DMEM medium or RPMI-1640 medium containing 10% fetal bovine serum, respectively, in the presence of 5% CO2 at 37° C. The PA-TU-8902 cells or the PK-59 cells were collected and suspended in PBS, and two equivalents of VitroGel Hydrogel Matrix (from TheWell Bioscience) was added. A cell suspension prepared at 1.0-2.0×10^7 cells/mL was subcutaneously inoculated in a volume of 100 μL in 4- to 6-week-old male nude mice (BALB/c-nu (nu/nu), from The Jackson Laboratory Japan, Inc.). After about two weeks of the inoculation, the mice were divided into groups so that all the groups had approximately the same tumor volume and body weight, and administration of a subject compound was started on the next day. The test was conducted for five mice for each of a solvent group and a subject compound administration group. The solvent used was a solvent containing ethanol (from FUJIFILM Wako), an aqueous (2-hydroxypropyl)-β-cyclodextrin (HP-PCD) solution (from ROQUETTE), HCO-40 (from Nikko Chemicals Co., Ltd.) dissolved in a 5% glucose solution (from Otsuka Pharmaceutical) at a ratio of 4%, 0.5%, and 9%, respectively. The compound was dissolved using the solvent. The subject compound dissolved in the solvent or the solvent was administered into tail vein. The administration was performed once or twice a week for two weeks. The tumor size and the body weight were measured twice a week. The tumor volume was calculated by using the following formula.
(§3) [Tumor volume (mm^3)]=[Major axis of tumor (mm)]×[Minor axis of tumor (mm)]^2×0.5
(§4) The tumor growth inhibition (%) by the subject compound was calculated with the tumor volume of the subject compound administration group on the previous day of the start of the administration taken as 100% inhibition and the tumor volume of the solvent group of the day of the final measurement taken as 0% inhibition.

PK-59 xenograft = test: Anti-tumor activity in PK-59 xenograft mouse; format: in vivo; conditions: 10 mg/kg, tail vein, once a week for two weeks, male nude mice
Experimental: as §1, §2, §3, §4

| SMILES | IC50 [1] [nM] | Anti-tumor activity at final measurement (PA-TU-8902 xenograft mouse), tumor growth inhibition (PA-TU-8902 xenograft) [% inhibition] | Anti-tumor activity at final measurement (PK-59 xenograft mouse), tumor growth inhibition (PK-59 xenograft) [% inhibition] |
| --- | --- | --- | --- |
| CO[C@@H](C)COc1nc(NC2CN(C(=O)O[C@H]3C[C@@H](N(C)C)C3)C2)c2cc(C3CC3)c(-c3c(C)c(F)cc4[nH]ncc34)c(OCc3ccc(-c4cn([C@H](C(=O)N5C[C@H](O)C[C@H]5C(=O)N[C@@H](CO)c5ccc(-c6ocnc6C)cc5)C(C)C)nn4)cc3)c2n1 (atropisomer, axis not shown; (M)) [Example 1, (1s,3R)-3-(dimethylamino)cyclobutyl 3-({(7M)-6-cyclopropyl-7-(6-fluoro-5-methyl-1H-indazol-4-yl)-8-{[4-(1-{(2S)-1-[(2S,4R)-4-hydroxy-2-({(1R)-2-hydroxy-1-[4-(4-methyl-1,3-oxazol-5-yl)phenyl]ethyl}carbamoyl)pyrrolidin-1-yl]-3-methyl-1-oxobutan-2-yl}-1H-1,2,3-triazol-4-yl)phenyl]methoxy}-2-[(2S)-2-methoxypropoxy]quinazolin-4-yl}amino)azetidine-1-carboxylate] | 19 | 69 | 68 |
| CO[C@@H](C)COc1cc(OC2CN(C(=O)NCCN(C)C)C2)c2cc(C3CC3)c(-c3c(C)c(F)cc4[nH]ncc34)c(OCc3ccc(-c4cn([C@H](C(=O)N5C[C@H](O)C[C@H]5C(=O)N[C@@H](CO)c5ccc(-n6cncn6)cc5)C(C)C)nn4)cc3)c2n1 (atropisomer, axis not shown; (M)) [Example 12, (4R)-1-[(2S)-2-(4-{4-[({(7M)-6-cyclopropyl-4-[(1-{[2-(dimethylamino)ethyl]carbamoyl}azetidin-3-yl)oxy]-7-(6-fluoro-5-methyl-1H-indazol-4-yl)-2-[(2S)-2-methoxypropoxy]quinolin-8-yl}oxy)methyl]phenyl}-1H-1,2,3-triazol-1-yl)-3-methylbutanoyl]-4-hydroxy-N-{(1R)-2-hydroxy-1-[4-(1H-1,2,4-triazol-1-yl)phenyl]ethyl}-L-prolinamide] | 18 | 61 | 63 |
